“And” between values parts separate entries of the source, which are not always exact repeats. Equal values may be shown once.
Tests used:
[1] = system: Plasmodium berghei; experiment: Antimalarial effect against trophozoite-induced Plasmodium berghei in mice (Mus musculus) after 20 mg/kg subcutaneous dose; format: functional
[2] = system: Plasmodium berghei; experiment: Antimalarial effect against trophozoite-induced Plasmodium berghei in mice (Mus musculus) after 40 mg/kg subcutaneous dose; format: functional
[3] = system: Plasmodium berghei; experiment: Antimalarial effect against trophozoite-induced Plasmodium berghei in mice (Mus musculus) at 160 mg/kg subcutaneous dose; format: functional
[4] = system: Plasmodium berghei; experiment: Antimalarial activity against trophozoite-induced Plasmodium berghei in mice (Mus musculus); format: functional
[5] = system: Plasmodium berghei; experiment: Antimalarial effect against trophozoite-induced Plasmodium berghei in mice (Mus musculus) at 80 mg/kg subcutaneous dose; format: functional
[6] = system: Mus musculus; experiment: Number of mice cured at a dose of 640 mg/kg sc; format: functional; conditions: route subcutaneous
[7] = system: Mus musculus; experiment: Number of toxic deaths at a dose of 320 mg/kg; format: toxicity, organism-based; set-up: dose 320 mg/kg; conditions: in vivo
[8] = system: Mus musculus; experiment: Number of toxic deaths at a dose of 640 mg/kg; format: toxicity, organism-based; set-up: dose 640 mg/kg; conditions: in vivo
[9] = The ratio of SD90 of the quinine hydrochloride, to the SD90 of the test substance for the Dose of 40 mg/kg; format: functional
[10] = system: Mus musculus; experiment: Number of mice cured at a subcutaneous dose of 320 mg/kg.; format: functional
[11] = system: Plasmodium berghei; experiment: Antimalarial effect against trophozoite-induced Plasmodium berghei in mice (Mus musculus) at 320 mg/kg subcutaneous dose; format: functional; conditions: 320 mg/kg
[12] = system: Plasmodium berghei; experiment: Antimalarial effect against trophozoite-induced Plasmodium berghei in mice (Mus musculus) at 640 mg/kg subcutaneous dose; format: functional
[13] = The ratio of SD90 of the quinine hydrochloride, to the SD90 of the test substance for the Dose of 30 mg/kg; format: functional
[14] = system: Plasmodium berghei; experiment: Antimalarial activity against trophozoite-induced Plasmodium berghei in mice (Mus musculus) at 160 mg/kg subcutaneous dose; format: functional; conditions: 160 mg/kg
[15] = system: Mus musculus; experiment: Number of mice cured at a dose of 160 mg/kg sc; format: functional; conditions: route subcutaneous
[16] = system: Mus musculus; experiment: Number of mice cured at a dose of 320 mg/kg sc; format: functional; conditions: route subcutaneous
[17] = system: Mus musculus; experiment: Antimalarial effect against trophozoite-induced Plasmodium berghei in mice (Mus musculus) at dosage of 80 mg/kg after subcutaneous administration; format: functional
[18] = system: Mus musculus; experiment: (§1) Number of mice cured at a dose of 80 mg/kg sc; format: functional; conditions: route subcutaneous
[19] = The ratio of SD90 of the quinine hydrochloride, to the SD90 of the test substance for the Dose of 7.8 mg/kg; format: functional
[20] = system: Mus musculus; experiment: Number of mice cured at a subcutaneous dose of 160 mg/kg.; format: functional
[21] = The ratio of SD90 of the quinine hydrochloride, to the SD90 of the test substance for the Dose of 91 mg/kg; format: functional
[22] = system: Mus musculus; experiment: Number of mice cured at a subcutaneous dose of 640 mg/kg.; format: functional
[23] = The ratio of SD90 of the quinine hydrochloride, to the SD90 of the test substance for the Dose of 17.5 mg/kg; format: functional
[24] = The ratio of SD90 of the quinine hydrochloride, to the SD90 of the test substance for the Dose of 9 mg/kg; format: functional
[25] = system: Mus musculus; experiment: Antimalarial effect against trophozoite-induced Plasmodium berghei in mice (Mus musculus) at dosage of 160 mg/kg after subcutaneous administration;; format: functional
[26] = system: Mus musculus; experiment: Antimalarial effect against trophozoite induced Plasmodium berghei in mice (Mus musculus) at dosage of 40 mg/kg after subcutaneous administration; format: functional
[27] = (§2) Number of mice cured at a dose of 40 mg/kg sc; format: functional; conditions: route subcutaneous
[28] = system: Mus musculus; experiment: as §2; format: functional; conditions: route subcutaneous
[29] = as §1; format: functional; conditions: route subcutaneous
[30] = The ratio of SD90 of the quinine htdrocloride, to the SD90 of the test substance for the Dose of 8.5 mg/kg; format: functional
[31] = The ratio of SD90 of the quinine hydrochloride, to the SD90 of the test substance for the Dose of 8.4 mg/kg; format: functional
[32] = The ratio of SD90 of the quinine hydrochloride, to the SD90 of the test substance for the Dose of 24 mg/kg; format: functional

Row | SMILES | MST [1] [days] | MST [3] [days] | SD90 [4] [mg/kg/day] | MST [5] [days] | No. of survivals [6] | MST ([1]; 20 mg/kg) | MST ([2]; 40 mg/kg) | MST [14] | No. of cured [15] | No. of cured [22] | other results
1 | CCN(CC)CCNc1nc(Nc2ccc(OC)c(CN(CC)CC)c2)nc2ccccc12 | 0.4 | 8.6 | 40 | 5.6 | 2 | – | – | – | – | – | MST [2]: 2.8 days; No. of toxic deaths [7]: 1; No. of toxic deaths [8]: 1; Ratio [9]: 1.9; No. of survivals [10]: 2
2 | CCN(CC)CCNc1nc(Nc2ccc(Cl)c(Cl)c2)nc2ccc([N+](=O)[O-])cc12 | – | – | 30 | – | – | 0.2 days and 0.3 days | 0.4 days and 0.7 days | – | – | – | MST [11]: 10.4 days and 10.9 days; MST [12]: 20.6 days; MST ([3]; 160 mg/kg): 7 days and 7.3 days; MST ([5]; 80 mg/kg): 1.2 days and 1.5 days; Ratio [13]: 2.5
3 | CN(C)C1CCC(Nc2nc(Nc3ccc(Cl)c(Cl)c3)nc3ccccc23)CC1 (stereo in doubt; 22) | – | 25.9 | 7.8 | – | – | 0.3 days | 4.5 days and 4.1 days | 22.9 days | 4 | – | MST [11]: 25.9 days; No. of cured [16]: 4; MST [17]: 11.4 days; No. of cured [18]: 3; Ratio [19]: 9.6
4 | CCN(CC)CCNc1nc(Nc2ccc(C(F)(F)F)cc2)nc2ccccc12 | 0.3 | 8.9 | 91 | 7.3 | 4 | – | 1.7 days and 1.1 days | – | – | – | No. of survivals [20]: 1; No. of survivals [10]: 4; Ratio [21]: 0.8
5 | CCN(CC)C1CCCC(Nc2nc(Nc3ccc(Cl)c(Cl)c3)nc3ccccc23)C1 (stereo not drawn) | 1 | – | 17.5 | 8 | – | – | 5 days and 4.8 days | 22.8 days and 23.1 days | 2 | 5 | No. of cured [16]: 5; Ratio [23]: 4.2
6 | CCN(CC)C1CCC(Nc2nc(Nc3cc(Cl)cc(Cl)c3)nc3ccccc23)CC1 (stereo in doubt; 34) | – | – | 9 | – | – | 2.3 days | 7.7 days and 7.5 days | 26.9 days and 23.4 days | 2 | 5 | No. of cured ([16]; 320 mg/kg): 5 and 3; MST ([17]; 80 mg/kg): 13.4 days; No. of cured [18]: 1; Ratio [24]: 8.3
7 | CCN(CC)C1CCC(Nc2nc(Nc3cc(Cl)cc(Cl)c3)nc3ccccc23)CC1 (stereo in doubt; 35) | – | – | 8.5 | – | 5 | 5.5 days | – | 24.9 days | – | – | MST [25]: 23.9 days; No. of survivals [16]: 5; MST ([17]; 80 mg/kg): 21.9 days; No. of survivals ([20]; 160 mg/kg): 4 and 3; MST [26]: 9.6 days and 8.9 days; No. of survivals [27]: 2; No. of survivals [28]: 2; No. of survivals [29]: 4; Ratio [30]: 8.8
8 | CCN1CCC(CNc2nc(Nc3ccc(Cl)c(Cl)c3)nc3ccccc23)CC1 | 0.7 | – | 8.4 | 9.1 | – | – | 7.5 days and 7.3 days | 23.9 days and 27.9 days | – | 5 | No. of cured ([16]; 320 mg/kg): 5 and 4; Ratio [31]: 8.9
9 | CCN(CC)CCNc1nc(Nc2ccc(Cl)c(Cl)c2)nc2ccccc12 | – | 7 | 24 | – | 5 | – | – | – | – | – | MST [2]: 1 days; Ratio [32]: 3.1

— ChEMBL document CHEMBL1121775, “Synthesis and antimalarial effects of N2-aryl-N4-[(dialkylamino)alkyl]- and N4-aryl-N2-[(dialkylamino)alkyl]-2,4-quinazolinediamines” (J Med Chem, 1981)
